The values below come from patent publication US20040034006A1, “Method of inactivating viral particles in a blood product” (priority 2000, published 2004).

Molecules are shown by their SMILES. Values joined by “and” are separate entries in the source; they are usually repeats but may differ in a detail not shown here. Equal entries are not always repeated.

One series concerns P. aeruginosa. The series is described as follows: photodynamic inactivation of bacteria with varying amounts of light. It is filed as cell-based. Particulars: 25 uM; dependent on amount of light (kJ/m^2); drops from 100%; FIG. 5.
The next series concerns red blood cells. The series is described as follows: in vivo survival of 51Cr-labeled RBC photodynamically treated and re-infused. Particulars: one value per monkey (BB26, CO33).
The test system of the next series is S. aureus. The series is described as follows: photodynamic inactivation of bacteria with varying amounts of light. It is filed as cell-based. Particulars: 25 uM; dependent on amount of light (kJ/m^2); drops from 100%; FIG. 5.

As for `C[n+]1ccc(-c2c3nc(c(-c4cc[n+](C)cc4)c4ccc([nH]4)c(-c4cc[n+](C)cc4)c4nc(c(-c5ccccc5)c5ccc2[nH]5)C=C4)C=C3)cc1.[Cl-].[Cl-].[Cl-]` [Sylsens, mono-phenyl-tri-(N-methyl-4-pyridyl)-porphyrin chloride], the “inactivation of bacteria, percentage remaining” value in the series on P. aeruginosa and in the series on S. aureus was not above 0.001% throughout. The “recovery (%) of red blood cells 24 h after re-infusion” value in the series with red blood cells (Treated I: re-infused immediately after treatment) was 75% and 102%; in the series on red blood cells (Treated II: re-infused after 5 weeks of storage after treatment), 71% and 72%.
